# Results as given in patent US9493420B2, “Quinoline derivatives and uses thereof” (Portland State University, priority 2005, dated 2016).
# Assays:
# [1] = system: D6 (CQ^S) P. falciparum strain; test: In vitro fluorescence (Sybr Green I) growth inhibition assay, D6 strain; assay type: cell-based; conditions: Plasmodium falciparum, D6; Table 13; growth inhibition; read-out: IC50 (nM) D6 (CQ^S)
# Source text: (§1) One exemplary method for measuring inhibitory effects of RCQ compound in vitro has been reported by Smilkstein et al. (Antimicrob. Agents Chemother., 48(5):1803-1806, 2004). This method employs fluorescent detection of the level of parasitemia in cultured red blood cells and can be automated for high-throughput screening of antimalarial RCQs. This exemplary method allows the inhibitory agent (such as a RCQ) to be in contact with the parasite for an entire developmental cycle without purine starvation, which is in contrast to the traditional ^3H-hypoxanthine method (Desjardins et al., Antimicrob. Agents Chemother., 16(6):710-718, 1979). Briefly, to perform the Smilkstein et al. method, an initial parasitemia of approximately 0.2% is attained by adding uninfected red blood cells (RBCs) to a stock culture of Plasmodium sp.-infected RBCs. […] After a period of incubation (such as about 72 hours), a sufficient amount (e.g., 100 μL) of a fluorescent DNA binding dye-detergent mixture (e.g., Sybr Green I dye-detergent mixture) to lyse cells and bind to DNA is added to the reactions. Because uninfected RBCs have no DNA, only parasite DNA (in infected RBCs) is available for binding to the fluorescent dye (e.g., Sybr Green I). Samples are then incubated in the dark for a period of time (e.g., one hour), followed by measurement of levels of fluorescence. For Sybr Green I, excitation and emission wavelength are 485 and 530 nm, respectively. Fluorescence readings, which represent the amount of parasite DNA in the sample, can be plotted against the Log [drug] and fit to a curve by nonlinear regression to obtain the IC50 value for the tested compound.
# (§2) An in vitro fluorescence assay for determining IC50 of antimalarial drugs was performed as previously described by Smilkstein et al. (Antimicrob. Agents Chemother., 48(5):1803-1806, 2004). This relatively low-cost procedure can be automated for high-throughput screening of the antimalarial activities of RCQs described herein. Advantageous, this method also allows the tested agent (e.g, a RCQ) to be in contact with the parasite for an entire developmental cycle without purine starvation (which occurs with the commonly used ^3H-hypoxanthine method; see, e.g., Desjardins et al., Antimicrob. Agents Chemother., 16, (6):[…], 1979).
# (§3) Briefly, an initial parasitemia of approximately 0.2% was attained by addition of uninfected red blood cells to a stock culture of cells infected with Dd2 (CQ^R) or D6 (CQ^S) P. falciparum strains. A 10 mM RCQ_02 solution (in DMSO) was prepared. RCQ_02 (at a final concentration from 10^−11 to 10^−4 M) and infected red blood cells (at a final concentration of 2% (v/v)) were mixed in 100 μL samples in individual wells of a 96-well plate. Each sample was prepared in triplicate. A triplicate set of reactions containing CQ (instead of RCQ_02) was included as a control. After a 72 hour incubation period, Sybr Green I dye-detergent mixture (100 μL) was added to each reaction. The samples were further incubated for an hour in the dark, and then placed in a 96-well fluorescence plate reader (Gemini-EM, […]) and analyzed with excitation and emission wavelength bands at 485 and 530 nm, respectively. Fluorescence readings were plotted against the Log [drug], and curve fitting performed by nonlinear regression to find the IC50 value.
# [2] = system: Dd2 (CQ^R) P. falciparum strain; test: In vitro fluorescence (Sybr Green I) growth inhibition assay, Dd2 strain; assay type: cell-based; conditions: Plasmodium falciparum, DD2; Table 13; growth inhibition; read-out: IC50 (nM) Dd2 (CQ^R)
# Source text: as §1, §2, §3
# P. chabaudi parasites = test: 4-day suppressive test in infected mice; assay type: in vivo; conditions: 64 mg/kg oral gavage once per day for four days; male CF-1 mice; by day 4
# Source text: Antimalarial compounds can also be tested for efficacy in vivo. One non-limiting exemplary method for performing such testing is the 4-day suppressive test (Peters, Ann. Trop. Med. Parasitol., 69(2):155-171, 1975). Briefly, such test involves collecting P. chabaudi (Mackinnon and Read, Philos. Trans. R. Soc. Lond. B Biol. Sci., 359:965-986, 2004; Mackinnon et al., Exp. Parasitol., 101 (2-3):121-128, 2002) from a donor animal harboring ˜20% parasitemia. Male CF-1 mice at 4-5 weeks of age (˜20 g) are infected with ˜10^7 infected red blood cells via 100 μL tail vein injection and randomly sorted into groups of 4 mice each on day 0. One hour after infection, the mice receive the test agent via oral gavage, or by the intraperitoneal route (at approximately 1-10 times the in vitro IC50 values). Drugs are administered once daily for at least 4 days beginning at day 0. […] Efficacy of a tested compound in this bioassay is measured by inhibition of parasite growth as defined previously. […]
# A variation of the 4-day suppressive test described by Peters (Ann. Trop. Med. Parasitol., 69(2):155-171, 1975) was used to test the in vivo effectiveness of RCQ_02 as a treatment for Plasmodium sp. infection. Briefly, P. chabaudi parasites (Mackinnon and Read, Philos. Trans. R. Soc. Lond. B Biol. Sci., 359:965-986, 2004) were collected from a donor animal harboring approximately 20% parasitemia. […]
# [3] = Adverse side effects in treated mice of the 4-day suppressive test; assay type: in vivo; conditions: 64, 32, 16 mg/kg oral gavage once per day for four days; CF-1 mice
# Source text: A variation of the 4-day suppressive test described by Peters (Ann. Trop. Med. Parasitol., 69(2):155-171, 1975) was used to test the in vivo effectiveness of RCQ_02 as a treatment for Plasmodium sp. infection. Briefly, P. chabaudi parasites (Mackinnon and Read, Philos. Trans. R. Soc. Lond. B Biol. Sci., 359:965-986, 2004) were collected from a donor animal harboring approximately 20% parasitemia. Sixteen (16) male CF-1 mice at 4-5 weeks of age (approximately 20 g) were infected with approximately 10^7 infected red blood cells via 100 μL tail vein injection. The infected mice were randomly sorted into groups of 4 mice each on day 0. One hour after infection, each group of four mice received 64, 32, 16, or 0 mg/kg RCQ_02 via oral gavage once per day for four days. After the treatment course, the animals were weighed and blood collected for the determination of parasite burden via direct microscopic analysis of Giemsa-stained blood smears. Mice treated with 64 mg/kg RCQ_02 were all cleared of parasites to >99% by day 4.
smiles,measurement,setting,value
"CN(CCCNc1ccnc2cc(Cl)ccc12)CCCN1c2ccccc2CCc2ccccc21 [RCQ_02, N′-(7-Chloro-quinolin-4-yl)-N-[3-(10,11-dihydro-dibenzo[b,f]azepin-5-yl)-propyl]-N-methyl-propane-1,3-diamine]",IC50,[1],2.9 nM
same,IC50,[2],5.3 nM
same,cleared of parasites,P. chabaudi parasites,> 99%
same,"adverse side effects (weight loss, reduced eating, reduced activity, ruffled ungroomed fur)",[3],none of the treated mice showed any adverse side effects
